Assay results from PubChem BioAssay AID248 (DTP/NCI, 2004).
Where “and” joins values, the source holds several entries; their conditions need not be identical. Identical values can stand only once. Toxic doses and inconclusive results are not listed.

Test system: L1210 leukemia ip in BDF1 mice, survival T/C
Test: NCI In Vivo Anticancer Drug Screen. Data for tumor model L1210 Leukemia (intraperitoneal) in B6D2F1 (BDF1) mice
Settings: endpoint: mean survival time, higher = longer survival
How it was run: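 Antitumor effect is assessed in tumor-bearing animals. Survival in the compound arm is compared with a vehicle-dosed control arm and expressed as their quotient.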

[1] = dose: 50.0 mg/kg/injection, schedule: Q01DX001 (ip), vehicle: carboxymethylcellulose (CMC)
[2] = dose: 100.0 mg/kg/injection, schedule: Q01DX001 (ip), vehicle: carboxymethylcellulose (CMC)
[3] = dose: 100.0 mg/kg/injection, schedule: Q01DX001 (ip), vehicle: saline
[4] = dose: 200.0 mg/kg/injection, schedule: Q01DX001 (ip), vehicle: saline
[5] = dose: 400.0 mg/kg/injection, schedule: Q01DX001 (ip), vehicle: saline
[6] = dose: 100.0 mg/kg/injection, schedule: Q04DX003 (ip), vehicle: Klucel (hydroxypropylcellulose) (HPC)
[7] = dose: 200.0 mg/kg/injection, schedule: Q04DX003 (ip), vehicle: Klucel (hydroxypropylcellulose) (HPC)
[8] = dose: 400.0 mg/kg/injection, schedule: Q04DX003 (ip), vehicle: Klucel (hydroxypropylcellulose) (HPC)
[9] = dose: 50.0 mg/kg/injection, schedule: Q01DX001 (ip), vehicle: saline
[10] = dose: 200.0 mg/kg/injection, schedule: Q01DX001 (ip), vehicle: carboxymethylcellulose (CMC)
[11] = dose: 400.0 mg/kg/injection, schedule: Q01DX001 (ip), vehicle: carboxymethylcellulose (CMC)

Cc1cc(C(C(N)=O)c2ccccc2)ccc1N(CCCl)CCCl (stereo not drawn)
T/C (dose: 2.0 mg/kg/injection, schedule: Q01DX009 (ip), vehicle: carboxymethylcellulose (CMC)): 116 % of control | T/C (dose: 3.7 mg/kg/injection, schedule: Q01DX015 (ip), vehicle: carboxymethylcellulose (CMC)): 121 % of control | T/C (dose: 4.0 mg/kg/injection, schedule: Q01DX009 (ip), vehicle: carboxymethylcellulose (CMC)): 124 % of control | T/C (dose: 7.2 mg/kg/injection, schedule: Q04DX003 (ip), vehicle: acetone): 104 % of control | T/C (dose: 20.0 mg/kg/injection, schedule: Q01DX009 (ip), vehicle: Klucel (hydroxypropylcellulose) (HPC)): 153 % of control | T/C (dose: 21.0 mg/kg/injection, schedule: Q04DX003 (ip), vehicle: acetone): 109 % of control and 121 % of control | T/C (dose: 21.0 mg/kg/injection, schedule: Q04DX003 (ip), vehicle: saline): 112 % of control | T/C (dose: 33.0 mg/kg/injection, schedule: Q04DX003 (ip), vehicle: saline): 118 % of control | T/C (dose: 37.5 mg/kg/injection, schedule: Q01DX009 (ip), vehicle: saline with Tween-80): 86 % of control | T/C (dose: 40.0 mg/kg/injection, schedule: Q01DX009 (ip), vehicle: Klucel (hydroxypropylcellulose) (HPC)): 101 % of control | T/C (dose: 45.0 mg/kg/injection, schedule: Q01DX015 (ip), vehicle: carboxymethylcellulose (CMC)): 95 % of control | T/C (dose: 49.0 mg/kg/injection, schedule: Q04DX003 (ip), vehicle: acetone): 120 % of control | T/C [1]: 114 % of control | T/C (dose: 50.0 mg/kg/injection, schedule: Q04DX003 (ip), vehicle: acetone): 123 % of control | T/C (dose: 50.0 mg/kg/injection, schedule: Q04DX003 (ip), vehicle: saline): 106 % of control | T/C (dose: 64.0 mg/kg/injection, schedule: Q01DX009 (ip), vehicle: carboxymethylcellulose (CMC)): 106 % of control | T/C (dose: 66.0 mg/kg/injection, schedule: Q01DX001 (ip), vehicle: saline): 116 % of control | T/C (dose: 66.0 mg/kg/injection, schedule: Q04DX003 (ip), vehicle: acetone): 112 % of control | T/C (dose: 88.8 mg/kg/injection, schedule: Q01DX001 (ip), vehicle: carboxymethylcellulose (CMC)): 123 % of control | T/C [2]: 112 % of control | T/C [3]: 100 % of control | T/C (dose: 150.0 mg/kg/injection, schedule: Q04DX003 (ip), vehicle: acetone): 96 % of control | T/C (dose: 300.0 mg/kg/injection, schedule: Q01DX001 (ip), vehicle: carboxymethylcellulose (CMC)): 152 % of control

COc1ccc(Nc2cc(=O)[nH]c(N)n2)cc1
T/C (dose: 100.0 mg/kg/injection, schedule: Q01DX Z (ip), vehicle: methylcellulose (MC)): 112 % of control | T/C (dose: 200.0 mg/kg/injection, schedule: Q01DX Z (ip), vehicle: methylcellulose (MC)): 108 % of control

COC(=O)c1cc(C)cc(N)c1C
T/C [3]: 102 % of control | T/C [4]: 109 % of control | T/C [5]: 104 % of control

CC(C)C(C)/C=C/C(C)C1CCC2C3=C(C=CC21C)C1(C)CCCCC1=CC3C1C=C2CCCCC2(C)C2=C1C1CCC(C(C)/C=C/C(C)C(C)C)C1(C)C=C2 (stereo not drawn)
T/C [6]: 90 % of control | T/C [7]: 100 % of control | T/C [8]: 90 % of control

C=CCc1ccc(O)c(OC)c1
T/C (dose: 100.0 mg/kg/injection, schedule: Q04DX002 (ip), vehicle: saline + alcohol): 108 % of control | T/C (dose: 200.0 mg/kg/injection, schedule: Q04DX002 (ip), vehicle: saline + alcohol): 101 % of control | T/C (dose: 400.0 mg/kg/injection, schedule: Q04DX002 (ip), vehicle: saline + alcohol): 97 % of control

[N-]=[N+]=NC(c1ccccc1)C(I)c1ccccc1 (stereo not drawn)
T/C [9]: 103 % of control | T/C [3]: 103 % of control | T/C [4]: 108 % of control | T/C [5]: 97 % of control

O=C(Nc1ccccc1F)c1ccccc1
T/C (dose: 100.0 mg/kg/injection, schedule: Q01DX009 (ip), vehicle: Klucel (hydroxypropylcellulose) (HPC)): 97 % of control | T/C [6]: 96 % of control | T/C (dose: 200.0 mg/kg/injection, schedule: Q01DX009 (ip), vehicle: Klucel (hydroxypropylcellulose) (HPC)): 87 % of control | T/C [7]: 98 % of control | T/C (dose: 400.0 mg/kg/injection, schedule: Q01DX009 (ip), vehicle: Klucel (hydroxypropylcellulose) (HPC)): 89 % of control | T/C [8]: 104 % of control

NSc1ccccc1[N+](=O)[O-]
T/C [6]: 100 % of control | T/C [7]: 105 % of control | T/C [8]: 100 % of control

CCCCCCCCCCCCCCCCCC(=O)NCCCNC(=O)CCCCCCCCCCCCCCCCC
T/C (dose: 75.0 mg/kg/injection, schedule: Q01DX001 (ip), vehicle: saline): 98 % of control | T/C (dose: 150.0 mg/kg/injection, schedule: Q01DX001 (ip), vehicle: saline): 95 % of control | T/C (dose: 300.0 mg/kg/injection, schedule: Q01DX001 (ip), vehicle: saline): 106 % of control

Cc1ccc2c([nH]1)c(C)cc1nc3ccccc3c12
T/C [1]: 103 % of control | T/C [9]: 95 % of control | T/C [3]: 101 % of control | T/C [10]: 95 % of control | T/C [4]: 110 % of control | T/C [11]: 104 % of control | T/C [5]: 101 % of control

CCCOCCOCCOC(C)Oc1ccccc1OC (stereo not drawn)
T/C (dose: 100.0 mg/kg/injection, schedule: Q04DX002 (ip), vehicle: saline): 92 % of control | T/C (dose: 200.0 mg/kg/injection, schedule: Q04DX002 (ip), vehicle: saline): 88 % of control | T/C (dose: 400.0 mg/kg/injection, schedule: Q04DX002 (ip), vehicle: saline): 95 % of control

O=NN(CCCl)C(=O)N[C@@H]1CCCC[C@H]1O
T/C (dose: 1.6 mg/kg/injection, schedule: Q01DX001 (ip), vehicle: saline with Tween-80): 106 % of control | T/C (dose: 2.4 mg/kg/injection, schedule: Q01DX001 (ip), vehicle: saline with Tween-80): 116 % of control | T/C (dose: 5.4 mg/kg/injection, schedule: Q01DX001 (ip), vehicle: saline with Tween-80): 183 % of control | T/C (dose: 6.0 mg/kg/injection, schedule: Q01DX001 (ip), vehicle: saline with Tween-80): 302 % of control | T/C (dose: 8.0 mg/kg/injection, schedule: Q01DX001 (ip), vehicle: saline with Tween-80): 441 % of control | T/C (dose: 9.0 mg/kg/injection, schedule: Q01DX001 (ip), vehicle: saline with Tween-80): 492 % of control | T/C (dose: 12.0 mg/kg/injection, schedule: Q01DX001 (ip), vehicle: saline with Tween-80): 441 % of control and 468 % of control | T/C (dose: 13.0 mg/kg/injection, schedule: Q01DX001 (ip), vehicle: saline with Tween-80): 505 % of control | T/C (dose: 18.0 mg/kg/injection, schedule: Q01DX001 (ip), vehicle: saline with Tween-80): 441 % of control | T/C (dose: 20.0 mg/kg/injection, schedule: Q01DX001 (ip), vehicle: saline with Tween-80): 505 % of control | T/C (dose: 26.0 mg/kg/injection, schedule: Q01DX001 (ip), vehicle: saline with Tween-80): 166 % of control | T/C (dose: 30.0 mg/kg/injection, schedule: Q01DX001 (ip), vehicle: saline with Tween-80): 195 % of control

CCOP(=O)(OCC)Oc1c(Cl)c(Cl)c(O)c(Cl)c1Cl
T/C (dose: 100.0 mg/kg/injection, schedule: Q04DX002 (ip), vehicle: saline with Tween-80): 91 % of control | T/C (dose: 200.0 mg/kg/injection, schedule: Q04DX002 (ip), vehicle: saline with Tween-80): 100 % of control

CCCCCc1ccccc1
T/C (dose: 200.0 mg/kg/injection, schedule: Q01DX Z (ip), vehicle: carboxymethylcellulose (CMC)): 103 % of control | T/C (dose: 400.0 mg/kg/injection, schedule: Q01DX Z (ip), vehicle: carboxymethylcellulose (CMC)): 108 % of control | T/C (dose: 800.0 mg/kg/injection, schedule: Q01DX Z (ip), vehicle: carboxymethylcellulose (CMC)): 91 % of control

O=C(/C=C/c1ccc2c(c1)OCO2)/C=C/c1ccc2c(c1)OCO2
T/C (dose: 25.0 mg/kg/injection, schedule: Q01DX009 (ip), vehicle: saline): 89 % of control | T/C (dose: 50.0 mg/kg/injection, schedule: Q01DX009 (ip), vehicle: saline): 88 % of control | T/C (dose: 100.0 mg/kg/injection, schedule: Q01DX009 (ip), vehicle: saline): 91 % of control | T/C (dose: 200.0 mg/kg/injection, schedule: Q01DX009 (ip), vehicle: saline): 88 % of control

COc1nc(N)nc2c1ncn2C1OC(CO)CC1O (stereo not drawn)
T/C [1]: 93 % of control | T/C [2]: 93 % of control | T/C [10]: 93 % of control | T/C [11]: 96 % of control

Ic1cccc2cc3cccc[n+]3cc12
T/C (dose: 9.9 mg/kg/injection, schedule: Q01DX Z (ip), vehicle: carboxymethylcellulose (CMC)): 102 % of control | T/C (dose: 14.6 mg/kg/injection, schedule: Q01DX Z (ip), vehicle: carboxymethylcellulose (CMC)): 103 % of control | T/C (dose: 22.0 mg/kg/injection, schedule: Q01DX Z (ip), vehicle: carboxymethylcellulose (CMC)): 91 % of control
